Where a name gives a salt, the structure may show the parent alone.
Columns and labels:
[1] = Dynamic vapor sorption (hygroscopicity); format: physicochemical; settings: relative humidity of up to 80%, dynamic vapor sorption isotherm
From the text: Dynamic Vapor Sorption (DVS) data were collected with a SMS DVS Intrinsic from Surface Measurement Systems.

[2] = Solid form stability at temperature and relative humidity; format: physicochemical; settings: temperatures up to 40° C. and relative humidity of up to 75%
[3] = test system: panel of 10 BRD representing the various branches of the bromodomain tree; test: AlphaScreen panel of 10 bromodomains; format: binding; settings: number of bromodomains out of 10

Row | Compound | water uptake [1] | stability of solid form [2] | activity against 10 bromodomains surveyed [3]
1 | COC(=O)N1c2ccc3c(nc([C@H](O)c4cc(F)ccc4OC)n3[C@@H]3CCC[C@@H](C(=O)O)C3)c2CC[C@@H]1C [HCl type A salt, (1R,3R)-3-((S)-2-((R)-(5-fluoro-2-methoxyphenyl)(hydroxy)methyl)-6-(methoxycarbonyl)-7-methyl-6,7,8,9-tetrahydro-3H-imidazo[4,5-f]quinolin-3-yl) cyclohexane-1-carboxylic acid] | 6.3% | stable for at least two weeks | 
2 | COC(=O)N1c2ccc3c(nc([C@H](O)c4cc(F)ccc4OC)n3[C@@H]3CCC[C@@H](C(=O)O)C3)c2CC[C@@H]1C [type B p-toluenesulfonic acid addition salt] [(1R,3R)-3-((S)-2-((R)-(5-fluoro-2-methoxyphenyl)(hydroxy)methyl)-6-(methoxycarbonyl)-7-methyl-6,7,8,9-tetrahydro-3H-imidazo[4,5-f]quinolin-3-yl) cyclohexane-1-carboxylic acid] | 2.1% | stable for at least two weeks | 
3 | COC(=O)N1c2ccc3c(nc([C@H](O)c4cc(F)ccc4OC)n3[C@@H]3CCC[C@@H](C(=O)O)C3)c2CC[C@@H]1C [Compound 1, (1R,3R)-3-[(7S)-2-[(R)-(5-fluoro-2-methoxyphenyl)(hydroxy)methyl]-6-(methoxycarbonyl)-7-methyl-3H,6H,7H,8H,9H-imidazo[4,5-f]quinolin-3-yl]cyclohexane-1-carboxylic acid] |  |  | inactive against 8

Reference: patent US20250304583A1, “INHIBITING G CYCLIC AMP-RESPONSIVE ELEMENT-BINDING PROTEIN (CREB) BINDING PROTEIN (CBP)” (FORMA Therapeutics, Inc., priority 2020, published 2025)
